Measurements published in patent publication US7772252B2, “Heterocyclic substituted carbonyl derivatives and their use as dopamine D3 receptor ligands” (Aventis Pharmaceuticals Inc., priority 2001, dated 2010).

Target: T1, cloned human alpha-1A adrenergic receptors (α1a) (Homo sapiens, UniProt P35348)
T1 construct: expressed in transfected cells; membranes
T1 sequence (P35348 1-466): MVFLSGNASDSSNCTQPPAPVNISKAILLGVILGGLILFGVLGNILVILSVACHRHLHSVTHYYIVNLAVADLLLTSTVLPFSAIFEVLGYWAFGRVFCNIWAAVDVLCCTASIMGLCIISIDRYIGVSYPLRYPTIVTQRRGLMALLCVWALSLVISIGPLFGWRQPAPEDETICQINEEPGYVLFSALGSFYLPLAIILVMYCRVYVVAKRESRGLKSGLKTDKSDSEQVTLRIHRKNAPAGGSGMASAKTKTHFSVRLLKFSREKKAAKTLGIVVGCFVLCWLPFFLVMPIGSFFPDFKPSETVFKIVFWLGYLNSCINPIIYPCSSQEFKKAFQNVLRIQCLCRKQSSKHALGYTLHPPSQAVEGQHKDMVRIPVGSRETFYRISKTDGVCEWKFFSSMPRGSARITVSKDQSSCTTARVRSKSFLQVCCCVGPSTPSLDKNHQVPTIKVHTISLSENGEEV
Test: [3H]Prazosin binding to cloned human alpha-1A adrenergic receptors expressed in CHO cells
Settings: read-out: halpha1Ki (nM) h = human
Text: ^3H]Prazosin Binding to Cloned Human Alpha-1A Adrenergic Receptors (α1a) Expressed in Chinese Hamster Ovary Cells (CHO)
• Purpose: This in vitro assay is designed as a screen to identify compounds displaying a affinity for the human α1a adrenoceptor subtype expressed in the membrane fragments of CHO cells. The assay measures the ability of the test compounds to displace [^3H] prazosin from α1a sites. • The identification of multiple vascular α1-addrenoceptors (α1a, α1b, α1d) in vitro has provided impetus to define the role(s) of these subtypes in cardiovascular regulation in vivo (Vargas and Gorman, 1995). […] Prazosin is a potent antagonist of the human α1a-adrenoceptor subtype, which has been cloned and is expressed in the membrane fragments of CHO cells. • hα1a receptor: The cloning of the human α1a cDNA was accomplished first by screening a human prostate cDNA library (Clontech), from which a portion of the coding region was obtained. This DNA fragment was then used to screen a human leukocyte genomic library (Clontech), and the rest of the coding sequence was obtained. Later these two fragments were spliced together. The entire coding sequence was then fully sequenced including matching PCR sequence with original genomic coding sequence, thus ensuring splice sites were joined correctly (Schwinn et al., 1995). Once sequenced, the gene was subcloned into the expression vector pcDNA3 (Invitrogen). Plasmid DNA was then used for transfection into CHO cells and G418 resistant clones were isolated. A clone expressing high levels of the hα1a receptor (as determined by mRNA and receptor binding data) was chosen and pharmacologically characterized. • Culture Media Ingredients for Adherent α1a expressing CHO Culture: • A. HAM's F-12 (Celigro) • B. 10% 0.2 micron filtered Fetal Bovine Serum (FBS)(Celigro) • C. 1% 0.2 micron filtered Penicillin-Streptomycin (Celigro) • D. G418 0.2 micron filtered (Geneticin 400 μg/ml)(Celigro) • Cells are cultured using established methods and procedures in either 150×25 mm culture plates (scale up to 100 plates) or a combination of these plates and 70 roller bottles. One culturing/harvest cycle typically requires 2 weeks and yields between 100-400 mg protein. Plates or bottles are incubated at 37° C.+5% CO2. • Storage: Cells are harvested by mechanical scraping, washed using PBS, collected in 250 ml Corning polypropylene centrifuge tubes, spun down (1500 RPM) and resuspended in dH2O 10% DMSO (final volume per harvest is approximately 50 ml). Protein determination is made using the Biorad DC Assay Kit. Finally, the appropriate volume is aliquoted into a 2 ml Corning Cryovial (10 mg/1-1.5 ml) which is stored at −80° C.
• Assay Requirement: 0.5 cryovials per 96 well plate (assay volume=200 μl/well) • [^3H]-Ligand: [7-methoxy-^3H]-Prazosin: 1.0 nM (NEN, NET-823) • 70-87 Ci/mmol • Materials: Phentolamine mesylate (Research Biochemicals Int. #P-131) • 96 well flat bottom plates (Beckman) • Unifilter GF/B Plate (Packard) • Polyethylenimine (Sigma #P-3134) • TomTec or Packard Filtermate 196 Cell Harvesters • Packard TopCount Scintillation Counter • Buffers: A: 50 mM Tris HCl; 0.1% ascorbate, pH 7.7 (incubation buffer) • B: 50 mM Tris HCl; pH 7.7 (wash buffer) • Procedure: Assay additions are as follows (in the order indicated): • Total Binding=50 μl buffer A+50 μl [^3H]prazosin+100 μl membrane • Nonsp. Bd.=50 μl 10 μM phentolamine+50 μl [^3H]prazosin+100 μl membrane • Test Cpd.=50 μl compound+50 μl [^3H]prazosin+100 μl membrane • Compounds to be evaluated are weighed out to yield a 10 mM stock solution in DMSO in a 24 well polystyrene plate. This is diluted to a 0.5 mM stock in dH2O, Serial dilutions in Buffer A are made from which 50 μl additions to the plate are made in duplicate in order to achieve the final concentrations desired. Typically, one 96 well plate is used to evaluate 11 compounds at 4 concentrations (10^−6-10^−9 M) in duplicate. Total binding and nonspecific binding are determined in quadruplicate. […]

Ki [nM] | SMILES
9.82 | CC1(C)CCCN(C(=O)CCCN2CCN(c3csc4cc(F)ccc34)CC2)C1 (racemic) [compound 826857]
32.2 | CN(C)C1CCN(C(=O)CCCN2CCN(c3csc4cc(F)ccc34)CC2)C1 (centres unmarked) [compound 826863]
